The text below walks through data of patent publication US10160747B2, “Compounds and methods for kinase modulation, and indications therefor” (Plexxikon Inc., priority 2016, dated 2018).

The structures appear in SMILES notation. pIC50: −log10 of the molar value.

For assay [1], the system named is MOLM-14 D835Y (endogenous FLT3 ITD and transfected FLT3 D835Y). Kind of assay: MOLM-14 D835Y cell proliferation assay (CellTiter-Glo). It is filed as cell-based. The conditions noted are these: Homo sapiens, MOLM-14, 72 h; 3 d growth, GMean. From the text: (§1) The FLT3 inhibitors may be assessed using the MOLM-14, Acute Myeloid Leukemia cell line that endogenously expresses FLT3 ITD or derivatives of the human FLT3 AML cell line which acquired the D835Y (activation loop) of F691L (gatekeeper) mutation after selection in escalating doses of the FLT3 Inhibitor AC220. FLT3 inhibitors may also be assessed using cells that are engineered to express mutant FLT3. For engineered cells, murine Ba/F3 cells were transfected with full-length FLT3 ITD/D835Y mutations. The parental BA/F3 cells are dependent upon Interleukin-3 (IL-3) for survival, and introduction of the FLT3 constructs rendered these cells dependent upon FLT3 kinase activity when cultured in the absences of IL-3. Engineered BA/F3 cell growth assays can be performed in either the […] of IL-3, to assess the compound inhibition of FLT3 or to detect the presence of off-target activity, respectively. Inhibitors of FLT3 kinase activity reduce or eliminate the FLT3 oncogenic signaling, resulting in reduced cell proliferation. This inhibition is measured as a function of compound concentration to assess IC50 values.
(§2) Cell lines used in proliferation assays are as follows in Table 2:
(§3) Cells were seeded at 1×10^4 cells per well of a 96 well cell culture plate in 50 μl of cell culture medium. Compounds were dissolved in DMSO, typically at a concentration of 0.5 mM and were serially diluted 1:3 for a total of eight points and added to the cells to final concentrations of […], 0.0041, 0.0014 and 0.00046 μM in 100 μl cell culture medium (final concentration 0.2% DMSO). […] The cells were incubated at 37° C., 5% CO2 for three days. CellTiter-Glo Buffer (Promega Cell Viability Assay catalog #G7573) and substrate were equilibrated to room temperature, and enzyme/substrate Recombinant Firefly Luciferase/Beetle Luciferin was reconstituted. The cell plates were equilibrated to room temperature for 30 minutes, then lysed by addition of an equivalent volume of the Celltiter-Glo Reagent. The plate was mixed for 10 minutes on a plate shaker to lyse the cells. The plates were read on a Tecan M1000 using Luminescence protocol modified to read 0.1 s per well. The luminescence reading assesses the ATP content, which correlates directly with cell number such that the reading as a function of compound concentration was used to determine the IC50 value.
On the technique in general: Cellular ATP, detected with luciferase, serves as a proxy for viable cell number.

The test system of assay [2] is MOLM-14 F691L (endogenous FLT3 ITD and transfected FLT3 F691L). Kind of assay: MOLM-14 F691L cell proliferation assay (CellTiter-Glo). Format: cell-based. The conditions noted are these: Homo sapiens, MOLM-14, 72 h; 3 d growth, GMean.
Source text: as §1, §2, §3

The target of the next assay is T1, BA/F3-FLT3-ITD + D835Y (Homo sapiens, UniProt P36888, D835Y, cells depend on it, form not given).
T1 sequence (P36888 with tags, fused parts or gaps INS600HVDFREYEYD/D835Y): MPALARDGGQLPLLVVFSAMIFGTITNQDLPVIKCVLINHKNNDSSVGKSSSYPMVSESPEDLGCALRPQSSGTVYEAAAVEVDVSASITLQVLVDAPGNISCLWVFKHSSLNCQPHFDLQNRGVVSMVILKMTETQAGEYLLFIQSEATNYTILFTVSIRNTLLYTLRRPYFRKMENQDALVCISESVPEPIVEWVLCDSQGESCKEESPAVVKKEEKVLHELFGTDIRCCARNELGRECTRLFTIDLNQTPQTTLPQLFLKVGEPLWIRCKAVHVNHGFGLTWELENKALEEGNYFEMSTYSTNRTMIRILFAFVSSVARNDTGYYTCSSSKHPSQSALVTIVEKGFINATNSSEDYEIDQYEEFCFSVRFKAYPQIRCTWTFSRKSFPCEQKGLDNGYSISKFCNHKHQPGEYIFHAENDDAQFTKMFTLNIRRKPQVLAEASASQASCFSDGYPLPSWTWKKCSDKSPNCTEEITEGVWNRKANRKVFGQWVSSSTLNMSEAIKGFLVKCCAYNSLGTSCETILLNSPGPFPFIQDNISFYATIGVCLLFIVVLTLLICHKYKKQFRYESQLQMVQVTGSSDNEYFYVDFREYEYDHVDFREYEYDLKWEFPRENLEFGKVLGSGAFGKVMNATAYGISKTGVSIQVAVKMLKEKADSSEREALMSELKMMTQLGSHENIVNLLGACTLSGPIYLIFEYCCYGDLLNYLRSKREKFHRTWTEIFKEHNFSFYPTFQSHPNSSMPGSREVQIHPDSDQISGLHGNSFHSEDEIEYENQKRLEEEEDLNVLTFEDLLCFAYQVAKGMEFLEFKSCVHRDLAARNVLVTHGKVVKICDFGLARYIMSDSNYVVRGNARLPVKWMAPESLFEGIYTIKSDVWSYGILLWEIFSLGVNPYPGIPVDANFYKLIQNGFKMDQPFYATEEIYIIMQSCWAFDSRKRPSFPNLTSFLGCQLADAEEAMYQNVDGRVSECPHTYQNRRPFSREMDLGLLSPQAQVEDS
Kind of assay: Engineered BA/F3 cell growth assay, FLT3 ITD/D835Y. Format: cell-based, murine. The conditions noted are these: 3 d growth.
Source text: as §1, §2, §3
The BaF3 assays as developed used to generate the data in Tables 7 and 8 are identical and differ only in minor details in regards to vector design, not biological function. Both introduce the FLT3 gene with MV4-11 based ITD duplications and resistance mutations from an exogenous promoter (MSCV and CMV respectively) in the exact same cell line.
As a result of the expressed FLT3 protein, the IL3 factor dependent BaF3 cell clones become IL3-factor independent.
The compounds in Tables 7 and 8 were tested in an identical fashion by incubating such clones in with increasing concentrations. Inhibition of the FLT3 activity by an inhibitor results in factor dependency, which in the absence of IL3 results in cell death in the three day growth assays.

By pIC50 is commonly meant the IC50 on a negative log10 scale, so that one unit is a factor of ten. A low value points to a high IC50. Usually GI50 stands for the concentration that inhibits growth by half. Take `COc1cc(-c2cc3cc(-c4ccc(CC(=O)Nc5cnc(OC)c(C(F)(F)F)c5)c(F)c4)cnc3[nH]2)ccn1` [Compound P-0009, 2-[2-fluoro-4-[2-(2-methoxy-4-pyridyl)-1H-pyrrolo[2,3-b]pyridin-5-yl]phenyl]-N-[6-methoxy-5-(trifluoromethyl)-3-pyridyl]acetamide]: the negative-log IC50 (pIC50) in assay [1] and in assay [2] was 5.00 to 10.00 in each case. Further, the GI50 on BA/F3-FLT3-ITD + D835Y was in the range of 0.0001 to 10 µM.

For `COc1ncc(NC(=O)Cc2ccc(-c3cnc4[nH]c(C#CC5CC5)cc4c3)cc2)cc1C(F)(F)F` [Compound P-0008, 2-[4-[2-(2-cyclopropylethynyl)-1H-pyrrolo[2,3-b]pyridin-5-yl]phenyl]-N-[6-methoxy-5-(trifluoromethyl)-3-pyridyl]acetamide], the pIC50 in assay [1] and in assay [2] was 5.00 to 10.00 each time. The GI50 on BA/F3-FLT3-ITD + D835Y fell in the range of 0.0001 to 10 µM.

As for `Cn1cc(Nc2ncc(-c3ccc(CC(=O)NCc4c(Cl)cccc4Cl)cc3)cn2)cn1` [Compound P-0123, N-[(2,6-dichlorophenyl)methyl]-2-[4-[2-[(1-methylpyrazol-4-yl)amino]pyrimidin-5-yl]phenyl]acetamide], the pIC50 in assay [1] and in assay [2] was 5.00 to 10.00 in each case. Further, the GI50 at BA/F3-FLT3-ITD + D835Y lay in the range of 0.0001 to 10 µM.

Take `COCC#Cc1cc2cc(-c3ccc(CC(=O)Nc4cnc(OC)c(C(F)(F)F)c4)cc3)cnc2[nH]1` [Compound P-0056, 2-[4-[2-(3-methoxyprop-1-ynyl)-1H-pyrrolo[2,3-b]pyridin-5-yl]phenyl]-N-[6-methoxy-5-(trifluoromethyl)-3-pyridyl]acetamide]: the pIC50 in assay [1] and in assay [2] was 5.00 to 10.00 each time. The GI50 at BA/F3-FLT3-ITD + D835Y fell in the range of 0.0001 to 10 µM.

`Cc1n[nH]c2ncc(NC(=O)Cc3ccc(-c4cnc(Nc5cnn(C)c5)nc4)cc3)cc12` [Compound P-0120, N-(3-methyl-1H-pyrazolo[3,4-b]pyridin-5-yl)-2-[4-[2-[(1-methylpyrazol-4-yl)amino]pyrimidin-5-yl]phenyl]acetamide]: the pIC50 in assay [1] and in assay [2] was 5.00 to 10.00 each time. Further, the concentration for 50% growth inhibition (GI50) on BA/F3-FLT3-ITD + D835Y was in the range of 0.0001 to 10 µM.

In the case of `COc1ncc(NC(=O)Cc2ccc(-c3cnc4[nH]c(-c5ccc(N6CCOCC6)nc5)cc4c3)cc2F)cc1C(F)(F)F` [Compound P-0010, 2-[2-fluoro-4-[2-(6-morpholino-3-pyridyl)-1H-pyrrolo[2,3-b]pyridin-5-yl]phenyl]-N-[6-methoxy-5-(trifluoromethyl)-3-pyridyl]acetamide], the pIC50 in assay [1] and in assay [2] was 5.00 to 10.00 throughout. Also, the 50% growth inhibitory concentration (GI50) on BA/F3-FLT3-ITD + D835Y fell in the range of 0.0001 to 10 µM.

For the compound `Cn1cc(Nc2ncc(-c3ccc(CC(=O)Nc4cnc5[nH]ccc5c4)cc3)cn2)cn1` [Compound P-0119, 2-[4-[2-[(1-methylpyrazol-4-yl)amino]pyrimidin-5-yl]phenyl]-N-(1H-pyrrolo[2,3-b]pyridin-5-yl)acetamide], the pIC50 in assay [1] and in assay [2] was 5.00 to 10.00 each time. Further, the GI50 on BA/F3-FLT3-ITD + D835Y fell in the range of 0.0001 to 10 µM.

In the case of `Cn1cc(Nc2ncc(-c3ccc(CC(=O)Nc4ccc(C#N)c(C(F)(F)F)c4)cc3)cn2)cn1` [Compound P-0113, N-[4-cyano-3-(trifluoromethyl)phenyl]-2-[4-[2-[(1-methylpyrazol-4-yl)amino]pyrimidin-5-yl]phenyl]acetamide], the pIC50 in assay [1] and in assay [2] was 5.00 to 10.00 throughout. Also, the GI50 at BA/F3-FLT3-ITD + D835Y lay within 0.0001 to 10 µM.

With `COc1ncc(NC(=O)Cc2cc(F)c(-c3cnc(Nc4cn[nH]c4)nc3)cc2F)cc1C(F)(F)F` [Compound P-0226, 2-[2,5-difluoro-4-[2-(1H-pyrazol-4-ylamino)pyrimidin-5-yl]phenyl]-N-[6-methoxy-5-(trifluoromethyl)-3-pyridyl]acetamide], the pIC50 in assay [1] and in assay [2] was 5.00 to 10.00 throughout. Further, the GI50 at BA/F3-FLT3-ITD + D835Y fell in the range of 0.0001 to 10 µM.

As to `COc1ccc(-c2cc3cc(-c4ccc(CC(=O)Nc5cnc(OC)c(C(F)(F)F)c5)cc4F)cnc3[nH]2)cn1` [Compound P-0012, 2-[3-fluoro-4-[2-(6-methoxy-3-pyridyl)-1H-pyrrolo[2,3-b]pyridin-5-yl]phenyl]-N-[6-methoxy-5-(trifluoromethyl)-3-pyridyl]acetamide], the pIC50 in assay [1] and in assay [2] was 5.00 to 10.00 each time. In addition, the GI50 at BA/F3-FLT3-ITD + D835Y lay within 0.0001 to 10 µM.

In the case of `O=C(Cc1cc(F)c(-c2cnc3[nH]c(-c4ccnc(N5CCOCC5)c4)cc3c2)cc1F)Nc1cc(C(F)(F)F)ccn1` [Compound P-0190, 2-[2,5-difluoro-4-[2-(2-morpholino-4-pyridyl)-1H-pyrrolo[2,3-b]pyridin-5-yl]phenyl]-N-[4-(trifluoromethyl)-2-pyridyl]acetamide], the negative-log IC50 (pIC50) in assay [1] and in assay [2] was 5.00 to 10.00 throughout. For the same compound, the GI50 at BA/F3-FLT3-ITD + D835Y is 0.0001 to 10 µM.

Consider `COCCn1cc(Nc2ncc(-c3ccc(CC(=O)Nc4cnc(C)c(C(F)(F)F)c4)c(F)c3)cn2)cn1` [Compound P-0264, 2-[2-fluoro-4-[2-[[1-(2-methoxyethyl)pyrazol-4-yl]amino]pyrimidin-5-yl]phenyl]-N-[6-methyl-5-(trifluoromethyl)-3-pyridyl]acetamide], for which the pIC50 in assay [1] and in assay [2] was 5.00 to 10.00 throughout. Besides, the GI50 at BA/F3-FLT3-ITD + D835Y fell in the range of 0.0001 to 10 µM.

For `Cn1cnc(Nc2ncc(-c3ccc(CC(=O)Nc4cnc(Cl)c(C(F)(F)F)c4)cc3)cn2)c1` [Compound P-0148, N-[6-chloro-5-(trifluoromethyl)-3-pyridyl]-2-[4-[2-[(1-methylimidazol-4-yl)amino]pyrimidin-5-yl]phenyl]acetamide], the pIC50 in assay [1] and in assay [2] was 5.00 to 10.00 each time. For the same compound, the GI50 on BA/F3-FLT3-ITD + D835Y was 0.0001 to 10 µM.

Regarding `O=C(Cc1ccc(-c2cnc3[nH]c(Cl)cc3c2)cc1F)Nc1cc(C(F)(F)F)ccn1` [Compound P-0040, 2-(4-(2-chloro-1H-pyrrolo[2,3-b]pyridin-5-yl)-2-fluorophenyl)-N-(4-(trifluoromethyl)pyridin-2-yl)acetamide], the pIC50 in assay [1] and in assay [2] was 5.00 to 10.00 each time. Further, the GI50 on BA/F3-FLT3-ITD + D835Y was 0.0001 to 10 µM.

Take `COc1ccc(-c2cc3cc(-c4ccc(CC(=O)Nc5cnc(OC)c(C(F)(F)F)c5)c(F)c4)cnc3[nH]2)cn1` [Compound P-0007, 2-[2-fluoro-4-[2-(6-methoxy-3-pyridyl)-1H-pyrrolo[2,3-b]pyridin-5-yl]phenyl]-N-[6-methoxy-5-(trifluoromethyl)-3-pyridyl]acetamide]: the pIC50 in assay [1] and in assay [2] was 5.00 to 10.00 each time. Also, the 50% growth inhibitory concentration (GI50) on BA/F3-FLT3-ITD + D835Y fell in the range of 0.0001 to 10 µM.
